Laboratory results: the kinase profiling compilation of Christmann-Franck et al. (2016)

Tests used:
Test in all cases: radiometric filter-binding kinase assay, Kinase HotSpot
Settings in all cases: compound 0.5 µM; ATP 10 µM
PBK (human) = PBK (human) (UniProt Q96KB5)
FGR (human) = FGR (human) (UniProt P09769)
MAPK9 (human) = MAPK9 (human) (UniProt P45984)
CAMK2G (human) = CAMK2G (human) (UniProt Q13555)
NLK (human) = NLK (human) (UniProt Q9UBE8)
RPS6KA3 KD1 KD2 (human) = RPS6KA3 KD1 KD2 (human) (UniProt P51812)
MAPKAPK3 (human) = MAPKAPK3 (human) (UniProt Q16644)
DAPK3 (human) = DAPK3 (human) (UniProt O43293)
PNCK (human) = PNCK (human) (UniProt Q6P2M8)
TTK (human) = TTK (human) (UniProt P33981)
TTK (human), sequence (P33981 whole entry, looked up): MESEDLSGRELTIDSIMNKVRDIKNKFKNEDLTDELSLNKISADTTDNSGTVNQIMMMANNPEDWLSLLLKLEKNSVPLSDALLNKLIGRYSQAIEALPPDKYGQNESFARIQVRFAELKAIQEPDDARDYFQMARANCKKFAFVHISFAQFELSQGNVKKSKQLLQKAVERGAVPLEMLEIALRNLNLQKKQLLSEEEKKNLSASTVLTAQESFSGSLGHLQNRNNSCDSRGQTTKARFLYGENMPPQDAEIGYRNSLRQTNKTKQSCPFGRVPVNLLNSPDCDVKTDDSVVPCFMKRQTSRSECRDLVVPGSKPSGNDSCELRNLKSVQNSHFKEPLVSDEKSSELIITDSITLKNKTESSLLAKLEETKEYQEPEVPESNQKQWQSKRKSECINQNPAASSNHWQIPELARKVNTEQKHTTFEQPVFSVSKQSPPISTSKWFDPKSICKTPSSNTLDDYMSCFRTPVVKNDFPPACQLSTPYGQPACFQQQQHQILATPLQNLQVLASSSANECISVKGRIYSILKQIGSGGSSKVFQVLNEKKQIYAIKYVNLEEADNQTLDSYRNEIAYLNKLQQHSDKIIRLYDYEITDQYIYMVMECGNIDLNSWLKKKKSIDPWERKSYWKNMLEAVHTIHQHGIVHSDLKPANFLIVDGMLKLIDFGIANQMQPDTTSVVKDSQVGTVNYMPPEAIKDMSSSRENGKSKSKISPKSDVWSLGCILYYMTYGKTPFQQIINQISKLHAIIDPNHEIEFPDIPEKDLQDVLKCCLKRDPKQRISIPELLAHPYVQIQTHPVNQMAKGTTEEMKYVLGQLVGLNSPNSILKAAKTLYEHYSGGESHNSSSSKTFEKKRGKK

ITK (human) = ITK (human) (UniProt Q08881)
ITK (human), sequence (Q08881 whole entry, looked up): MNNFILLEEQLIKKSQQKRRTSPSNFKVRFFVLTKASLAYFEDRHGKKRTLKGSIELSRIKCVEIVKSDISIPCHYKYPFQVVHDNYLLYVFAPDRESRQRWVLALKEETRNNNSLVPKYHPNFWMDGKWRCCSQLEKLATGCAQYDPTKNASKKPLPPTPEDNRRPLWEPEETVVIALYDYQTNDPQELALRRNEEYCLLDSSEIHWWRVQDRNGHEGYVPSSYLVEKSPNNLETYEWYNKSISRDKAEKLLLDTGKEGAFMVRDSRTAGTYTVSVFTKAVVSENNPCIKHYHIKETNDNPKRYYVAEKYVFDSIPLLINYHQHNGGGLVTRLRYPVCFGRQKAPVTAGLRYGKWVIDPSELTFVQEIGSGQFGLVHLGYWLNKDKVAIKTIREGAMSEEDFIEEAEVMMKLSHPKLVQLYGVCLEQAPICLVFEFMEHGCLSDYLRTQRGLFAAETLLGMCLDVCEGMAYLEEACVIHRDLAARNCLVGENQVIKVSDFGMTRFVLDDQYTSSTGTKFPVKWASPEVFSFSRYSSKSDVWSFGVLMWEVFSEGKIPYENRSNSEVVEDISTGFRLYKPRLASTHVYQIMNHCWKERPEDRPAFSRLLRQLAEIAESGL

DDR2 (human) = DDR2 (human) (UniProt Q16832)
[1] = target: JAK1 JH1 catalytic (human) (UniProt P23458)
SRC (human) = SRC (human) (UniProt P12931)
CDK3 CCNE1 (human) = CDK3 CCNE1 (human) (UniProt Q00526+P24864)
SIK2 (human) = SIK2 (human) (UniProt Q9H0K1)
PDGFRA (human) = PDGFRA (human) (UniProt P16234)
CDC42BPB (human) = CDC42BPB (human) (UniProt Q9Y5S2)
SRPK3 (human) = SRPK3 (human) (UniProt Q9UPE1)
SRPK3 (human), sequence (Q9UPE1 whole entry, looked up): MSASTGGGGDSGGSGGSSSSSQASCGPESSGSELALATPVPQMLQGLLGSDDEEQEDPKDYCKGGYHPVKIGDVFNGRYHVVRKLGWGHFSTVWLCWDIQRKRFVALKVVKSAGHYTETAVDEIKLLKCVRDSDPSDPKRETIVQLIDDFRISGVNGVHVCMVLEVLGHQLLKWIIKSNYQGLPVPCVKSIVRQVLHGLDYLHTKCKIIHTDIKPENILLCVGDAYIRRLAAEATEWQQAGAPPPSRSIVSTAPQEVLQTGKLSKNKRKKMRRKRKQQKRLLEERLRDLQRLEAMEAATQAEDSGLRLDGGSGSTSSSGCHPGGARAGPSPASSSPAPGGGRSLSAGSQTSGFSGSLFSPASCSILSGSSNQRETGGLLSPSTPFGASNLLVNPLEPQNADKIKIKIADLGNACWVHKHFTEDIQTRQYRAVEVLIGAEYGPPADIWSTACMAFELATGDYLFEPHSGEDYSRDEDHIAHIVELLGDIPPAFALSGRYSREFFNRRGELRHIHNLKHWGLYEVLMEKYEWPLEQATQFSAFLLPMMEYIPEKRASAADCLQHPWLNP

AXL (human) = AXL (human) (UniProt P30530)
AXL (human), sequence (P30530 whole entry, looked up): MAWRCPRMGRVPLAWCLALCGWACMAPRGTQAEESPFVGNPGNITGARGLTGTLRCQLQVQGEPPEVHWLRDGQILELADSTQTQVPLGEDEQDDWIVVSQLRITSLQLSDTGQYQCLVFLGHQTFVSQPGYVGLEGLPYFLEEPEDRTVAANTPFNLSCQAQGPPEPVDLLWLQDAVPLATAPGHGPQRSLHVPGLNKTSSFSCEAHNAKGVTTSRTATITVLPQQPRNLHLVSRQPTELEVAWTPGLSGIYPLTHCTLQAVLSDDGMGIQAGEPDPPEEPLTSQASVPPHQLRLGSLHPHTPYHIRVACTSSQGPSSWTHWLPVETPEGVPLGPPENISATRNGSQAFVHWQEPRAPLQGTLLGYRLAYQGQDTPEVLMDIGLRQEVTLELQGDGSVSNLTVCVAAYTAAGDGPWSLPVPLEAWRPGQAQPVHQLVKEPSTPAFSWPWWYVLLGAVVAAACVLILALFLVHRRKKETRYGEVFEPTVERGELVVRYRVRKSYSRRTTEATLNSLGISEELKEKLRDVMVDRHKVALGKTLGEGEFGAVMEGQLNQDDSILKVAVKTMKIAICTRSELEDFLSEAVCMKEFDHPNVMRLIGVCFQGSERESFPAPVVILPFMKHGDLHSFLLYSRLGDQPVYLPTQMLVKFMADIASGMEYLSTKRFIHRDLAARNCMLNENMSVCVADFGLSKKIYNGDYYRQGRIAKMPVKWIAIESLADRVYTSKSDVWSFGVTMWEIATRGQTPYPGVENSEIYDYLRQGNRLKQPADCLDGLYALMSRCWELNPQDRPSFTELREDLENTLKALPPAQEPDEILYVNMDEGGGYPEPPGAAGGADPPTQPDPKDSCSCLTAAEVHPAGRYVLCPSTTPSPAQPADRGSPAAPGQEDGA

LTK (human) = LTK (human) (UniProt P29376)
ABL2 (human) = ABL2 (human) (UniProt P42684)
ERBB4 (human) = ERBB4 (human) (UniProt Q15303)
PHKG1 (human) = PHKG1 (human) (UniProt Q16816)
CSNK1G1 (human) = CSNK1G1 (human) (UniProt Q9HCP0)
FER (human) = FER (human) (UniProt P16591)
PRKCB2 (human) = PRKCB2 (human) (UniProt P05771)
IRAK1 (human) = IRAK1 (human) (UniProt P51617)
KIT (human) = KIT (human) (UniProt P10721)
PRKG2 (human) = PRKG2 (human) (UniProt Q13237)
TGFBR1 (human) = TGFBR1 (human) (UniProt P36897)
GRK5 (human) = GRK5 (human) (UniProt P34947)
GRK5 (human), sequence (P34947 whole entry, looked up): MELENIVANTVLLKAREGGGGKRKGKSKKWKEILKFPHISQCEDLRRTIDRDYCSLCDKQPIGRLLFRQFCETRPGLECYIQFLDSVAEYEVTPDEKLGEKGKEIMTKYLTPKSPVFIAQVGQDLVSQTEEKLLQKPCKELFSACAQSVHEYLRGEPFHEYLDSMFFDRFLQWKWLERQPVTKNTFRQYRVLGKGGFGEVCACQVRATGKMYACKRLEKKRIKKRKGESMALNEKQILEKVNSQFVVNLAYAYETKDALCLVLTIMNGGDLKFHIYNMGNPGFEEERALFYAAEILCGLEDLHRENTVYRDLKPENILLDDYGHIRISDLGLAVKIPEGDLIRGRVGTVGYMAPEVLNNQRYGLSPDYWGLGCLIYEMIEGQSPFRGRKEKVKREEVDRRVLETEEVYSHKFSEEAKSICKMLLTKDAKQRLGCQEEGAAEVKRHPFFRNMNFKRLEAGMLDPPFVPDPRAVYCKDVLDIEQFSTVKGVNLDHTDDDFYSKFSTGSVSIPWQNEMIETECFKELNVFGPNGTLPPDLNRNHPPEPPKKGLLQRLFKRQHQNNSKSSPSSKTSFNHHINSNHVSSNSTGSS

PRKCZ (human) = PRKCZ (human) (UniProt Q05513)
SGK3 (human) = SGK3 (human) (UniProt Q96BR1)
MAPK14 (human) = MAPK14 (human) (UniProt Q16539)
PAK2 (human) = PAK2 (human) (UniProt Q13177)
ADRBK2 (human) = ADRBK2 (human) (UniProt P35626)
TXK (human) = TXK (human) (UniProt P42681)
PAK3 (human) = PAK3 (human) (UniProt O75914)
PAK3 (human), sequence (O75914 whole entry, looked up): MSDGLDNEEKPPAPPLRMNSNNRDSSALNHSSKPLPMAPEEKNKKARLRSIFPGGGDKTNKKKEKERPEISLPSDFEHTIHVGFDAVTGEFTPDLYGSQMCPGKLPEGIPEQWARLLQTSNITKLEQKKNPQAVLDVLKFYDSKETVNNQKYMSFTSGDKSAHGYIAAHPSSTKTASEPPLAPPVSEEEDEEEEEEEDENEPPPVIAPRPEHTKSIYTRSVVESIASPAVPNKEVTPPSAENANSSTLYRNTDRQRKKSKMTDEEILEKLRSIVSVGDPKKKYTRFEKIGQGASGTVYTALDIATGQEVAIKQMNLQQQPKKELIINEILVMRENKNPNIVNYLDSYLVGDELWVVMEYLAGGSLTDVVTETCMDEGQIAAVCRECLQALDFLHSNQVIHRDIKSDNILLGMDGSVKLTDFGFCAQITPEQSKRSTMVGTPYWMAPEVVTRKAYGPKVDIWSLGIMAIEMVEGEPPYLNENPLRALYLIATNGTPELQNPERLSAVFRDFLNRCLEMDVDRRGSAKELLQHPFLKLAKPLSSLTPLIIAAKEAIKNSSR

GSK3B (human) = GSK3B (human) (UniProt P49841)
RPS6KA2 KD1 KD2 (human) = RPS6KA2 KD1 KD2 (human) (UniProt Q15349)
RPS6KA2 KD1 KD2 (human), sequence (Q15349 whole entry, looked up): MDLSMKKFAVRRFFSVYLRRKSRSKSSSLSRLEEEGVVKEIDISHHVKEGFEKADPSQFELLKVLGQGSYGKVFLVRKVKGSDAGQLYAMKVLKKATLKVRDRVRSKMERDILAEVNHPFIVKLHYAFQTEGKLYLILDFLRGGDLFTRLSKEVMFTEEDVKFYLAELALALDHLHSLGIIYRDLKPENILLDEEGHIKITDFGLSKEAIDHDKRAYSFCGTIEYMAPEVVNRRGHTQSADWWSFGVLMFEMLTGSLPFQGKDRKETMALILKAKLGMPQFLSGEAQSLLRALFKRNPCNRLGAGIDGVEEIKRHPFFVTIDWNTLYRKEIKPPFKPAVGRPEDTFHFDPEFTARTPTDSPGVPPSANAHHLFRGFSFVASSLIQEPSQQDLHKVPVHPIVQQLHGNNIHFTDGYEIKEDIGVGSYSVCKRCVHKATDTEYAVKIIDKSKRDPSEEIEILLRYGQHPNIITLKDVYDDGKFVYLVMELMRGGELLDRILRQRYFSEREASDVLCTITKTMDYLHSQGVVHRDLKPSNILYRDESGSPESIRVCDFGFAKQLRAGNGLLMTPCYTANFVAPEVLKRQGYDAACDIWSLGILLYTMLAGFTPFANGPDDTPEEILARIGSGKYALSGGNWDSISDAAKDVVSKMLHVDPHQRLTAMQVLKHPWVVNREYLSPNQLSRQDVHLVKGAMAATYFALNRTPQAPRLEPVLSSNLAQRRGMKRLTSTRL

CAMK2A (human) = CAMK2A (human) (UniProt Q9UQM7)

## CC(C)n1cnc2c(Nc3cccc(Cl)c3)nc(NCCO)nc21
PBK (human)
  residual activity: 101%
FGR (human)
  residual activity: 61.5%
MAPK9 (human)
  residual activity: 101%
CAMK2G (human)
  residual activity: 106%
NLK (human)
  residual activity: 102%
RPS6KA3 KD1 KD2 (human)
  residual activity: 60.1%
MAPKAPK3 (human)
  residual activity: 91%
DAPK3 (human)
  residual activity: 102%
PNCK (human)
  residual activity: 100%
TTK (human)
  residual activity: 82.5%
ITK (human)
  residual activity: 96%
DDR2 (human)
  residual activity: 93.3%
[1]
  residual activity: 103%
SRC (human)
  residual activity: 68.9%
CDK3 CCNE1 (human)
  residual activity: 76.9%
SIK2 (human)
  residual activity: 107%
PDGFRA (human)
  residual activity: 96.4%
CDC42BPB (human)
  residual activity: 109%
SRPK3 (human)
  residual activity: 47.7%
AXL (human)
  residual activity: 91.3%
LTK (human)
  residual activity: 85.3%
ABL2 (human)
  residual activity: 60.7%
ERBB4 (human)
  residual activity: 101%
PHKG1 (human)
  residual activity: 75.8%
CSNK1G1 (human)
  residual activity: 16%
FER (human)
  residual activity: 79.5%
PRKCB2 (human)
  residual activity: 99.7%
IRAK1 (human)
  residual activity: 101%
KIT (human)
  residual activity: 76.3%
PRKG2 (human)
  residual activity: 82.7%
TGFBR1 (human)
  residual activity: 97.7%
GRK5 (human)
  residual activity: 99.4%
PRKCZ (human)
  residual activity: 97.8%
SGK3 (human)
  residual activity: 97.1%
MAPK14 (human)
  residual activity: 90.7%
PAK2 (human)
  residual activity: 106%
ADRBK2 (human)
  residual activity: 90.5%
TXK (human)
  residual activity: 78.1%
PAK3 (human)
  residual activity: 96.7%
GSK3B (human)
  residual activity: 96%
RPS6KA2 KD1 KD2 (human)
  residual activity: 62.1%
CAMK2A (human)
  residual activity: 99.1%

## Nc1n[nH]c2nnc(-c3c(-c4ccccc4)nn4ccccc34)cc12
PBK (human)
  residual activity: 95%
FGR (human)
  residual activity: 92.9%
MAPK9 (human)
  residual activity: 48.4%
CAMK2G (human)
  residual activity: 96.7%
NLK (human)
  residual activity: 102%
RPS6KA3 KD1 KD2 (human)
  residual activity: 98.7%
MAPKAPK3 (human)
  residual activity: 103%
DAPK3 (human)
  residual activity: 102%
PNCK (human)
  residual activity: 99.6%
TTK (human)
  residual activity: 110%
ITK (human)
  residual activity: 90.8%
DDR2 (human)
  residual activity: 101%
[1]
  residual activity: 104%
SRC (human)
  residual activity: 100%
CDK3 CCNE1 (human)
  residual activity: 96.8%
SIK2 (human)
  residual activity: 93.6%
PDGFRA (human)
  residual activity: 99.7%
CDC42BPB (human)
  residual activity: 93.4%
SRPK3 (human)
  residual activity: 88.9%
AXL (human)
  residual activity: 99.1%
LTK (human)
  residual activity: 90.5%
ABL2 (human)
  residual activity: 57.5%
ERBB4 (human)
  residual activity: 91.4%
PHKG1 (human)
  residual activity: 101%
CSNK1G1 (human)
  residual activity: 109%
FER (human)
  residual activity: 90.8%
PRKCB2 (human)
  residual activity: 99.7%
IRAK1 (human)
  residual activity: 105%
KIT (human)
  residual activity: 97.1%
PRKG2 (human)
  residual activity: 104%
TGFBR1 (human)
  residual activity: 96.1%
GRK5 (human)
  residual activity: 106%
PRKCZ (human)
  residual activity: 83.9%
SGK3 (human)
  residual activity: 90.2%
MAPK14 (human)
  residual activity: 94.6%
PAK2 (human)
  residual activity: 100%
ADRBK2 (human)
  residual activity: 101%
TXK (human)
  residual activity: 88.8%
PAK3 (human)
  residual activity: 100%
GSK3B (human)
  residual activity: 109%
RPS6KA2 KD1 KD2 (human)
  residual activity: 96.5%
CAMK2A (human)
  residual activity: 102%

## O=C1Cc2c([nH]c3ccc([N+](=O)[O-])cc23)-c2ccccc2N1
PBK (human)
  residual activity: 85.1%
FGR (human)
  residual activity: 50.3%
MAPK9 (human)
  residual activity: 97.2%
CAMK2G (human)
  residual activity: 94.5%
NLK (human)
  residual activity: 95.5%
RPS6KA3 KD1 KD2 (human)
  residual activity: 70.6%
MAPKAPK3 (human)
  residual activity: 97%
DAPK3 (human)
  residual activity: 103%
PNCK (human)
  residual activity: 107%
TTK (human)
  residual activity: 87.4%
ITK (human)
  residual activity: 97.1%
DDR2 (human)
  residual activity: 103%
[1]
  residual activity: 97.8%
SRC (human)
  residual activity: 39.7%
CDK3 CCNE1 (human)
  residual activity: 56.8%
SIK2 (human)
  residual activity: 56.5%
PDGFRA (human)
  residual activity: 91.7%
CDC42BPB (human)
  residual activity: 83.3%
SRPK3 (human)
  residual activity: 92.7%
AXL (human)
  residual activity: 100%
LTK (human)
  residual activity: 93.9%
ABL2 (human)
  residual activity: 54.6%
ERBB4 (human)
  residual activity: 87.3%
PHKG1 (human)
  residual activity: 9.22%
CSNK1G1 (human)
  residual activity: 100%
FER (human)
  residual activity: 75.1%
PRKCB2 (human)
  residual activity: 105%
IRAK1 (human)
  residual activity: 93.1%
KIT (human)
  residual activity: 83.7%
PRKG2 (human)
  residual activity: 97.6%
TGFBR1 (human)
  residual activity: 103%
GRK5 (human)
  residual activity: 107%
PRKCZ (human)
  residual activity: 109%
SGK3 (human)
  residual activity: 102%
MAPK14 (human)
  residual activity: 92.1%
PAK2 (human)
  residual activity: 41%
ADRBK2 (human)
  residual activity: 88.9%
TXK (human)
  residual activity: 87.3%
PAK3 (human)
  residual activity: 80.4%
GSK3B (human)
  residual activity: 2.68%
RPS6KA2 KD1 KD2 (human)
  residual activity: 62%
CAMK2A (human)
  residual activity: 88.4%

## CCN1/C(=C/C(C)=O)Sc2ccc(OC)cc21
PBK (human)
  residual activity: 94.8%
FGR (human)
  residual activity: 91.7%
MAPK9 (human)
  residual activity: 101%
CAMK2G (human)
  residual activity: 90.4%
NLK (human)
  residual activity: 103%
RPS6KA3 KD1 KD2 (human)
  residual activity: 102%
MAPKAPK3 (human)
  residual activity: 90.1%
DAPK3 (human)
  residual activity: 98.7%
PNCK (human)
  residual activity: 101%
TTK (human)
  residual activity: 88.7%
ITK (human)
  residual activity: 102%
DDR2 (human)
  residual activity: 96.6%
[1]
  residual activity: 98.9%
SRC (human)
  residual activity: 94.4%
CDK3 CCNE1 (human)
  residual activity: 91.5%
SIK2 (human)
  residual activity: 116%
PDGFRA (human)
  residual activity: 105%
CDC42BPB (human)
  residual activity: 114%
SRPK3 (human)
  residual activity: 95%
AXL (human)
  residual activity: 105%
LTK (human)
  residual activity: 87.1%
ABL2 (human)
  residual activity: 96.1%
ERBB4 (human)
  residual activity: 101%
PHKG1 (human)
  residual activity: 89.5%
CSNK1G1 (human)
  residual activity: 87.8%
FER (human)
  residual activity: 87.9%
PRKCB2 (human)
  residual activity: 99.3%
IRAK1 (human)
  residual activity: 114%
KIT (human)
  residual activity: 67.8%
PRKG2 (human)
  residual activity: 65.8%
TGFBR1 (human)
  residual activity: 94.2%
GRK5 (human)
  residual activity: 108%
PRKCZ (human)
  residual activity: 98%
SGK3 (human)
  residual activity: 93.4%
MAPK14 (human)
  residual activity: 95.4%
PAK2 (human)
  residual activity: 105%
ADRBK2 (human)
  residual activity: 82.9%
TXK (human)
  residual activity: 100%
PAK3 (human)
  residual activity: 96.3%
GSK3B (human)
  residual activity: 98.1%
RPS6KA2 KD1 KD2 (human)
  residual activity: 83.3%
CAMK2A (human)
  residual activity: 103%
